Literature values in US20030054382A1, “Infection of eukaryotic cells with viruses in vitro” (priority 1999, published 2003).

Tested on: HCV
Settings: pretreatment of the cells to be infected

dextran sulfate
attachment of HCV to the cell surface and infection of the cells: inhibits the attachment of HCV to the cell surface and prevents any infection of the cells
